The values that follow come from US20110105393A1, “METHODS FOR PROMOTING STEM CELL PROLIFERATION AND SURVIVAL” (priority 2007, published 2011).

One series has as its system adult rat SVZ NSCs. The experiment in a line: Expansion of adult rat SVZ NSC / neural precursor cultures. The class given is cell-based. As for the experimental part:
(§1) Cell culture: E13.5 cortical embryonic mouse CNS stem cells were grown as previously described (Johe, et al., Genes Dev 10, 3129-40, 1996). Cells were expanded in serum-free DMEM/F12 medium with N2 supplement and FGF2 (20 ng/ml) for 5 days under 5% oxygen conditions and were re-plated fresh or from frozen stocks at 1,000-10,000 cells per cm^2. FGF2 was included throughout the studies, unless otherwise stated. Adult rat (3-6 months old) or adult mouse (2-4 months old) SVZ NSC cultures were grown in the same medium as the fetal cultures.
Pharmacological treatments: Unless otherwise stated, the following concentrations were used: Dll4 and Ang-2 (in vitro, 500 ng/ml; in vivo 12.5 μg as a single injection), FGF2 (in vitro, 20 ng/ml), JAK inhibitor (in vitro, 200 nM; in vivo, 250 ng as a single injection), insulin (in vitro, 25 μg/ml; in vivo, 40 μg as a single injection), DAPT (1 μM), Fluorogold (0.5 μg). For the survival assays, compounds were added daily and Notch ligands every 2 days for the duration of the experiment. For the effects of kinase inhibitors on Notch activation, cells were pre-incubated for 1 h prior to Notch activation.
(§2) Cell Culture: E13.5 cortical embryonic mouse CNS stem cells were grown as previously described (Johe et al., Genes Dev 10, 3129, 1996). Cells were expanded in serum-free DMEM/F12 medium with N2 supplement and FGF2 (20 ng/ml) for 5 days under 5% oxygen conditions and were re-plated fresh or from frozen stocks at 1,000-10,000 cells per cm^2. FGF2 was included throughout our experiments, unless otherwise stated. Adult rat (3-6 months old) or adult mouse (2-4 months old) SVZ Neural Stem Cell (NSC) cultures were grown in the same medium as the fetal cultures.
(§3) Pharmacological treatments: Unless otherwise stated, we used the following concentrations: Dll4 and Ang2 (in vitro, 500 ng/ml; in vivo 12.5 μg as a single injection), FGF2 (in vitro, 20 ng/ml), JAK inhibitor (in vitro, 200 nM; in vivo, 250 ng as a single injection), insulin (in vitro, 25 μg/ml; in vivo, 40 μg as a single injection), DAPT (1 μM), Fluorogold (0.5 μg). […]

Another series deals with Tie-2 receptor. In words: Tie-2 phosphorylation in fetal neural cells (Western blot). The class given is cell-based, mouse. As to conditions: exogenous addition, Western blot (FIG. 10a). As for the experimental part:
as §2, §3
Three characterized Tie-2 receptor antibodies were used to determine if the Tie-2 receptor was expressed in the immature neural precursor cells found in the SVZ of the adult brain. […] Precursor cells that proliferate in vitro can be readily derived from the fetal and adult brain. […] This colony number assay measured the survival of precursor cells that could differentiate into neurons and glia (See, Table 1).
For orientation: In western blotting, separated proteins are transferred to a membrane and probed.

The subject of a further series is Hes3. The experiment in a line: Hes3 protein immuno-staining in fetal NSC cultures. The class given is cell-based, mouse. The note with it: 2 day treatment. As for the experimental part:
as §1
Hes3 mRNA is present in fetal NSC cultures under conditions that support their self-renewal but CNTF-induced differentiation (Bonni, A. et al., Science 278, 477-83, 1997; Rajan & McKay, J Neurosci 18, 3620-9, 1998): downregulates Hes3 message (Androutsellis-Theotokis, A. et al., Nature 442, 823-6, 2006). Knockout studies have shown a role of Hes3 in self-renewal (Hatakeyama, J. et al., Development 131, 5539-50, 2004). It was investigated if Hes3 mediates stem cell functions in vitro to assess its use as a functional NSC marker. Fetal (E13.5) cortical tissue was dissociated and magnetic sorting was used to isolate a cell population that expressed AC133, an established marker of NSCs (Uchida, N. et al., Proc Natl Acad Sci USA 97, 14720-5, 2000). […]

For another series, the system named is Ang-1. The experiment in a line: Ang-1 expression in fetal NSC cultures. The class given is cell-based, mouse. As to conditions: fetal NSCs in culture, treatment 2 days. As for the experimental part:
as §1
Fetal NSCs in culture express Ang-1, and treatment (2 days) with Dll4 maintained it whereas CNTF reduced it. Ang-2 expression was maintained under these conditions. […] Ang-2 induced mTOR and STAT3-S727 phosphorylation, unlike Ang-1 (FIG. 2a). Ang-1, however, induced Akt phosphorylation.

Turning to “Ang-2: human angiopoietin-2 (623-AN) from R&D; antagonist for angiopoietin-1 at Tie2”, in the series with adult rat SVZ NSCs (0.5 μg/ml, 5-d (FIG. 2b)), the “generation of adult rat SVZ NSCs in vitro” value was “profoundly increased”. Moreover, in the series on adult rat SVZ NSCs (adult rat SVZ NSC cultures treated with Dll4), the “colony formation and overall cell numbers” value is reported as “significantly increased”. The “increase in the numbers of proliferating cells” value in the series with adult rat SVZ NSCs (cells from adult SVZ in culture, added to Dll4, insulin and FGF2, p=2.15×10^−5 (FIG. 10b)) was found to be 7 fold. Further, where the note is “single intraventricular injection 2 weeks after lesion”, the “pathology associated with the 6OHDA lesion” value was “hemorrhage and an enlarged ventricle”. Further, the risk of bleeding result (summary of in vivo treatments) is “increases the risk of bleeding”. For the same substance, in the series on Tie-2 receptor, the “phosphorylation of Tie-2” value was “promoted phosphorylation”.
Regarding “Dll4: Notch ligand Delta-like 4; mouse Dll4 (1389-D4) from R&D”, the Hes3 protein expression result with Hes3 was “maintained”. Besides, the Ang-1 expression result in the series on Ang-1 is “maintained”.
